Measurements as given in article doi:10.1101/2023.06.27.546672v1 (biorxiv, 2023).

Molecular target: T1, apo-sMlaD (Escherichia coli, UniProt P64604)
T1 sequence (P64604 29-183 limits assumed): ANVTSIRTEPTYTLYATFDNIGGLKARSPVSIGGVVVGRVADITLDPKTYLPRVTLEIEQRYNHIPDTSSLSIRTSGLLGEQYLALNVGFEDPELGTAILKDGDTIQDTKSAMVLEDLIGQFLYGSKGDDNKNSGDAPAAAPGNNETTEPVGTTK
Assay: isothermal titration calorimetry
Format: binding

Kd [µM]	SMILES
61.6 ± 15.6	C[C@H](CCC(=O)O)[C@H]1CC[C@H]2[C@@H]3[C@H](O)C[C@@H]4C[C@H](O)CC[C@]4(C)[C@H]3CC[C@]12C [CDOC]
~100	C[C@H](CCC(=O)O)[C@H]1CC[C@H]2[C@@H]3CC[C@@H]4C[C@H](O)CC[C@]4(C)[C@H]3C[C@H](O)[C@]12C [DOC]
